Reference: PubChem BioAssay (NCI)
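96-well plates; 48 h exposure; 5 concentrations. Endpoints by linear interpolation between flanking doses. Not reached: highest tested concentration assigned. TGI marks complete inhibition of growth.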

How the values were obtained:
Assay in all cases: NCI tumour cell line growth inhibition, 48 h
A498 renal = test system: A498 renal
A549 NSCLC = test system: A549 NSCLC
CAKI-1 renal = test system: CAKI-1 renal
CCRF-CEM leukemia = test system: CCRF-CEM leukemia
COLO 205 colon = test system: COLO 205 colon
DLD-1 colon = test system: DLD-1 colon
DMS 114 small cell lung = test system: DMS 114 small cell lung
DMS 273 small cell lung = test system: DMS 273 small cell lung
EKVX NSCLC = test system: EKVX NSCLC
HCC-2998 colon = test system: HCC-2998 colon
HCT-116 colon = test system: HCT-116 colon
HCT-15 colon = test system: HCT-15 colon
HL-60(TB) leukemia = test system: HL-60(TB) leukemia
HOP-18 NSCLC = test system: HOP-18 NSCLC
HOP-62 NSCLC = test system: HOP-62 NSCLC
HOP-92 NSCLC = test system: HOP-92 NSCLC
HT29 colon = test system: HT29 colon
IGROV1 ovarian = test system: IGROV1 ovarian
K-562 leukemia = test system: K-562 leukemia
KM12 colon = test system: KM12 colon
KM20L2 colon = test system: KM20L2 colon
LOX IMVI melanoma = test system: LOX IMVI melanoma
M19-MEL melanoma = test system: M19-MEL melanoma
MALME-3M melanoma = test system: MALME-3M melanoma
MCF7 breast = test system: MCF7 breast
MOLT-4 leukemia = test system: MOLT-4 leukemia
NCI-H226 lung = test system: NCI-H226 lung
NCI-H23 lung = test system: NCI-H23 lung
NCI-H460 lung = test system: NCI-H460 lung
NCI-H522 lung = test system: NCI-H522 lung
NCI/ADR-RES ovarian = test system: NCI/ADR-RES ovarian
OVCAR-3 ovarian = test system: OVCAR-3 ovarian
OVCAR-4 ovarian = test system: OVCAR-4 ovarian
OVCAR-5 ovarian = test system: OVCAR-5 ovarian
OVCAR-8 ovarian = test system: OVCAR-8 ovarian
P388/ADR leukemia = test system: P388/ADR leukemia
RPMI-8226 leukemia = test system: RPMI-8226 leukemia
RXF 393 renal = test system: RXF 393 renal
SF-268 CNS = test system: SF-268 CNS
SF-295 CNS = test system: SF-295 CNS
SF-539 CNS = test system: SF-539 CNS
SK-MEL-2 melanoma = test system: SK-MEL-2 melanoma
SK-MEL-28 melanoma = test system: SK-MEL-28 melanoma
SK-MEL-5 melanoma = test system: SK-MEL-5 melanoma
SK-OV-3 ovarian = test system: SK-OV-3 ovarian
SN12C renal = test system: SN12C renal
SN12K1 renal = test system: SN12K1 renal
SNB-19 CNS = test system: SNB-19 CNS
SNB-75 CNS = test system: SNB-75 CNS
SNB-78 CNS = test system: SNB-78 CNS
SW-620 colon = test system: SW-620 colon
U251 CNS = test system: U251 CNS
UACC-257 melanoma = test system: UACC-257 melanoma
UACC-62 melanoma = test system: UACC-62 melanoma
UO-31 renal = test system: UO-31 renal
XF 498 CNS = test system: XF 498 CNS

For `CN(C)CCNC(=O)c1cc(Cl)cc2ccc(-c3ccccc3)nc12`, the TGI (A498 renal) was 15.8 µM, the TGI (A549 NSCLC) was 12.4 µM and the TGI (CAKI-1 renal) was 8.56 µM. The TGI (CCRF-CEM leukemia) was 6.01 µM, the TGI (COLO 205 colon) was 4.28 µM and the TGI (DLD-1 colon) was 12.9 µM. It also gave a TGI (DMS 114 small cell lung) of 12.6 µM, a TGI (DMS 273 small cell lung) of 7.48 µM and a TGI (EKVX NSCLC) of 21.5 µM. The TGI (HCC-2998 colon) was 13.8 µM, the TGI (HCT-116 colon) was 10.7 µM and the TGI (HCT-15 colon) was 9.49 µM. The TGI (HL-60(TB) leukemia) was 4.88 µM, the TGI (HOP-18 NSCLC) was 12.5 µM and the TGI (HOP-62 NSCLC) was 10.3 µM. It also gave a TGI (HOP-92 NSCLC) of 9.35 µM, a TGI (HT29 colon) of 10.7 µM and a TGI (IGROV1 ovarian) of 14.2 µM. For the same compound, the TGI (K-562 leukemia) was 8.17 µM, the TGI (KM12 colon) was 22.2 µM and the TGI (KM20L2 colon) was 13.1 µM. The TGI (LOX IMVI melanoma) was 6.7 µM, the TGI (M19-MEL melanoma) was 11.4 µM and the TGI (MALME-3M melanoma) was 8.26 µM. It also gave a TGI (MCF7 breast) of 14.5 µM, a TGI (MOLT-4 leukemia) of 2.92 µM and a TGI (NCI-H226 lung) of 7.02 µM. It also gave a TGI (NCI-H23 lung) of 14.4 µM, a TGI (NCI-H460 lung) of 7.09 µM and a TGI (NCI-H522 lung) of 16 µM. The TGI (NCI/ADR-RES ovarian) was 10.9 µM, the TGI (OVCAR-3 ovarian) was 15.8 µM and the TGI (OVCAR-4 ovarian) was 13.7 µM. For the same compound, the TGI (OVCAR-5 ovarian) was 13.7 µM, the TGI (OVCAR-8 ovarian) was 13.2 µM and the TGI (P388/ADR leukemia) was 7.95 µM. It also gave a TGI (RPMI-8226 leukemia) of 5.32 µM, a TGI (RXF 393 renal) of 14.3 µM and a TGI (SF-268 CNS) of 19.2 µM. The TGI (SF-295 CNS) was 15.4 µM, the TGI (SF-539 CNS) was 9.18 µM and the TGI (SK-MEL-2 melanoma) was 17.1 µM. It also gave a TGI (SK-MEL-28 melanoma) of 16.1 µM, a TGI (SK-MEL-5 melanoma) of 3.82 µM and a TGI (SK-OV-3 ovarian) of 12.8 µM. It also gave a TGI (SN12C renal) of 12.9 µM, a TGI (SN12K1 renal) of 5.81 µM and a TGI (SNB-19 CNS) of 18.8 µM. For the same compound, the TGI (SNB-75 CNS) was 14 µM, the TGI (SNB-78 CNS) was 24.9 µM and the TGI (SW-620 colon) was 13.4 µM. For the same compound, the TGI (U251 CNS) was 15.3 µM, the TGI (UACC-257 melanoma) was 10.8 µM and the TGI (UACC-62 melanoma) was 6.36 µM. The TGI (UO-31 renal) was 4.76 µM and the TGI (XF 498 CNS) was 5.04 µM.
